# Test results published in patent US20230271950A1, “ANTIBACTERIAL PICOLINAMIDE COMPOUNDS” (University of Notre Dame Du Lac, priority 2020, published 2023).
# Like-named read-outs stand apart in the source and are kept apart here.
# Tests used:
# C. difficile = assay: MIC by broth microdilution against C. difficile strains; assay type: cell-based, Clostridioides difficile; settings: for MIC: Clostridioides difficile; for Selectivity: MIC MRSA/MIC C. difficile, Table 3
# MRSA (NRS70, NRS119) = assay: MIC against MRSA strains; assay type: cell-based, Staphylococcus aureus; settings: for MIC: Staphylococcus aureus
# [1] = ATCC43255, ATCC 43255, ribotype 087, Table 3 (SAR^2 and SAR^3), read-out: MIC C. difficile
# [2] = NRS70 strain, Table 3 (SAR^2 and SAR^3), read-out: MIC MRSA
# [3] = ATCC43255, C. difficile ATCC43255, FIG. 2 legend, read-out: MIC of positive controls
# [4] = ATCC43255, ATCC 43255, ribotype 087, Table 2 (SAR^1), read-out: MIC C. difficile
# [5] = NRS70 strain, Table 2 (SAR^1), read-out: MIC MRSA
# [6] = ATCC43255, C. difficile ATCC 43255, read-out: MIC against C. difficile
# [7] = MRSA strain NRS70, read-out: MIC against MRSA
SMILES,MIC (C. difficile; [1]) [µg/mL],"MIC (MRSA (NRS70, NRS119); [2]) [µg/mL]",Selectivity (C. difficile),also measured
"O=C(Nc1ncco1)c1ccnc(C(F)(F)F)c1 [Compound 63, N-(Oxazol-2-yl)-2-(trifluoromethyl)isonicotinamide]",4,16,4,
"CC(=O)NC[C@H]1CN(c2ccc(N3CCOCC3)c(F)c2)C(=O)O1 [linezolid, reference compound]",,,,MIC (C. difficile; [3]): 2 µg/mL
"O=C(Nc1nc2ncccc2o1)c1ccnc(-c2ccc(Cl)c(Cl)c2)c1 [Compound 22, 2-(3,4-Dichlorophenyl)-N-(oxazolo[4,5-b]pyridin-2-yl)isonicotinamide]",,,,"MIC (C. difficile; [4]): 0.0625 µg/mL; MIC (MRSA (NRS70, NRS119); [5]): 0.25 µg/mL"
"O=C(Nc1ccon1)c1ccnc(-c2ccc(Cl)c(Cl)c2)c1 [Compound 18, 2-(3,4-Dichlorophenyl)-N-(isoxazol-3-yl)isonicotinamide]",,,,"MIC (C. difficile; [4]): ≥ 128 µg/mL; MIC (C. difficile; [6]): ≥ 64 µg/mL; MIC (MRSA (NRS70, NRS119); [7]): ≥ 64 µg/mL; MIC (MRSA (NRS70, NRS119); [5]): ≥ 256 µg/mL"
"Cl.Cl.O=C(Nc1ncc(C(=O)N2CCNCC2)o1)c1ccnc(-c2ccc(Cl)c(Cl)c2)c1 [Compound 31, 2-(3,4-Dichlorophenyl)-N-(5-(piperazine-1-carbonyl)oxazol-2-yl)isonicotinamide dihydrochloride]",,,,"MIC (C. difficile; [4]): 8 µg/mL; MIC (MRSA (NRS70, NRS119); [5]): 16 µg/mL"
"O=C(Nc1ncc(C(=O)N2CCOCC2)o1)c1ccnc(-c2ccc(Cl)c(Cl)c2)c1 [Compound 29, 2-(3,4-Dichlorophenyl)-N-(5-(morpholine-4-carbonyl)oxazol-2-yl)isonicotinamide]",,,,"MIC (C. difficile; [4]): 0.125 µg/mL; MIC (MRSA (NRS70, NRS119); [5]): 2 µg/mL"
"Cc1nnc(NC(=O)c2ccnc(-c3ccc(Cl)c(Cl)c3)c2)o1 [Compound 19, 2-(3,4-Dichlorophenyl)-N-(5-methyl-1,3,4-oxadiazol-2-yl)isonicotinamide]",,,,"MIC (C. difficile; [4]): 64 µg/mL; MIC (C. difficile; [6]): ≥ 64 µg/mL; MIC (MRSA (NRS70, NRS119); [7]): ≥ 64 µg/mL; MIC (MRSA (NRS70, NRS119); [5]): ≥ 256 µg/mL"
"CC(C)(C)OC(=O)NCCCCCCOC(=O)c1cnc(NC(=O)c2ccnc(-c3ccc(Cl)c(Cl)c3)c2)o1 [Compound 27, 6-((Tert-butoxycarbonyl)amino)hexyl 2-(2-(3,4-dichlorophenyl)isonicotinamido) oxazole-5-carboxylate]",,,,"MIC C. difficile (C. difficile; ATCC 43255, ribotype 087, Table 2 (SAR^1)): 8 µg/mL; MIC MRSA (MRSA (NRS70, NRS119); NRS70 strain, Table 2 (SAR^1)): 16 µg/mL"
"O=C(Nc1ncc(C(=O)O)o1)c1ccnc(-c2ccc(Cl)c(Cl)c2)c1 [Compound 24, 2-(2-(3,4-Dichlorophenyl)isonicotinamido)oxazole-5-carboxylic acid]",,,,"MIC (C. difficile; [4]): 128 µg/mL; MIC (MRSA (NRS70, NRS119); [5]): 64 µg/mL"
"O=C(Nc1ncco1)c1ccnc(-c2cc(F)cc(F)c2)c1 [Compound 42, 2-(3,5-Difluorophenyl)-N-(oxazol-2-yl)isonicotinamide]",0.5,8,16,
"COc1ccc(-c2cc(C(=O)Nc3ncco3)ccn2)cc1OC [Compound 53, 2-(3,4-Dimethoxyphenyl)-N-(oxazol-2-yl)isonicotinamide]",16,64,4,
"O=C(Nc1ncc[nH]1)c1ccnc(-c2ccc(Cl)c(Cl)c2)c1 [Compound 17, 2-(3,4-Dichlorophenyl)-N-(1H-imidazol-2-yl)isonicotinamide]",,,,"MIC (C. difficile; [4]): ≥ 128 µg/mL; MIC (C. difficile; [6]): ≥ 64 µg/mL; MIC (MRSA (NRS70, NRS119); [7]): ≥ 64 µg/mL; MIC (MRSA (NRS70, NRS119); [5]): ≥ 256 µg/mL"
"CC(C)(C)OC(=O)Nc1ccc(-c2cc(C(=O)Nc3ncco3)ccn2)cc1 [Compound 58, Tert-butyl (4-(4-(oxazol-2-ylcarbamoyl)pyridin-2-yl)phenyl)carbamate]",8,8,1,
"O=C(Nc1ncco1)c1ccnc(-c2ccccc2)c1 [Compound 60, N-(Oxazol-2-yl)-2-phenylisonicotinamide]",8,8,1,
"O=C(Nc1nccs1)c1ccnc(-c2ccc(Cl)c(Cl)c2)c1 [Compound 16, 2-(3,4-Dichlorophenyl)-N-(thiazol-2-yl)isonicotinamide]",,,,"MIC (C. difficile; [4]): ≥ 128 µg/mL; MIC (C. difficile; [6]): ≥ 64 µg/mL; MIC (MRSA (NRS70, NRS119); [7]): ≥ 64 µg/mL; MIC (MRSA (NRS70, NRS119); [5]): ≥ 256 µg/mL"
"O=C(Nc1ncco1)c1cc(-c2ccc(Cl)c(F)c2)ncc1F [Compound 74, 2-(4-Chloro-3-fluorophenyl)-5-fluoro-N-(oxazol-2-yl)isonicotinamide]",0.25,2,8,
"N#Cc1cccc(-c2cc(C(=O)Nc3ncco3)ccn2)c1 [Compound 55, 2-(3-Cyanophenyl)-N-(oxazol-2-yl)isonicotinamide]",4,32,8,
"CO[C@H]1/C=C/O[C@@]2(C)Oc3c(C)c(O)c4c(O)c(c5c(nc6cc(C)ccn65)c4c3C2=O)NC(=O)/C(C)=C\C=C\[C@H](C)[C@H](O)[C@@H](C)[C@@H](O)[C@@H](C)[C@H](OC(C)=O)[C@@H]1C [rifaximin, reference compound]",,,,MIC (C. difficile; [3]): 0.03 µg/mL
"CCOC(=O)c1cnc(NC(=O)c2ccnc(-c3ccc(Cl)c(Cl)c3)c2)o1 [Compound 23, Ethyl 2-(2-(3,4-dichlorophenyl)isonicotinamido)oxazole-5-carboxylate]",,,,"MIC (C. difficile; [4]): 0.0625 µg/mL; MIC (MRSA (NRS70, NRS119); [5]): 0.06 µg/mL"
"O=C(Nc1ncco1)c1cncc(-c2ccc(Cl)c(Cl)c2)n1 [Compound 86, 6-(3,4-Dichlorophenyl)-N-(oxazol-2-yl)pyrazine-2-carboxamide]",8,4,0.5,
"CCOC(=O)c1coc(NC(=O)c2ccnc(-c3ccc(Cl)c(Cl)c3)c2)n1 [Compound 15, Ethyl 2-(2-(3,4-dichlorophenyl)isonicotinamido)oxazole-4-carboxylate]",,,,"MIC (C. difficile; [4]): 0.125 µg/mL; MIC (MRSA (NRS70, NRS119); [5]): 1 µg/mL"
"CC(C)(C)OC(=O)Nc1cccc(-c2cc(C(=O)Nc3ncco3)ccn2)c1 [Compound 59, Tert-butyl (3-(4-(oxazol-2-ylcarbamoyl)pyridin-2-yl)phenyl)carbamate]",8,4,0.5,
"O=C(Nc1ncco1)c1cc(-c2ccc(F)c(Cl)c2)ncc1F [Compound 73, 2-(3-Chloro-4-fluorophenyl)-5-fluoro-N-(oxazol-2-yl)isonicotinamide]",0.5,2,4,

# Continued, in another order:
MIC (C. difficile; [1]) [µg/mL],"MIC (MRSA (NRS70, NRS119); [2]) [µg/mL]",SMILES,Selectivity (C. difficile),also measured
1,1,"O=C(Nc1ncco1)c1ccnc(-c2ccc(F)c(Cl)c2)c1F [Compound 67, 2-(3-Chloro-4-fluorophenyl)-3-fluoro-N-(oxazol-2-yl)isonicotinamide]",1,
1,2,"O=C(Nc1ncco1)c1ccnc(-c2cccc(Cl)c2)c1F [Compound 69, 2-(3-Chlorophenyl)-3-fluoro-N-(oxazol-2-yl)isonicotinamide]",2,
≥ 16,2,"O=C(Nc1ncco1)c1cccc(-c2ccc(Cl)c(Cl)c2)n1 [Compound 75, 6-(3,4-Dichlorophenyl)-N-(oxazol-2-yl)picolinamide]",≤ 0.125,
1,0.5,"O=C(Nc1ncco1)c1ccnc(-c2ccc(Cl)c(Cl)c2)n1 [Compound 83, 2-(3,4-Dichlorophenyl)-N-(oxazol-2-yl)pyrimidine-4-carboxamide]",0.5,
2,4,"O=C(Nc1ncco1)c1ccnc(-c2ccc(F)c(F)c2)c1F [Compound 68, 2-(3,4-Difluorophenyl)-3-fluoro-N-(oxazol-2-yl)isonicotinamide]",2,
4,128,"O=C(Nc1ncco1)c1cc(-c2ccc(Cl)cc2)ccn1 [Compound 88, 4-(4-Chlorophenyl)-N-(oxazol-2-yl)picolinamide]",32,
4,1,"O=C(Nc1ncco1)c1ccnc(-c2ccccc2F)c1 [Compound 38, 2-(2-Fluorophenyl)-N-(oxazol-2-yl)isonicotinamide]",0.25,
≥ 16,64,"O=C(Nc1ncco1)c1cccc(-c2ccc(F)c(F)c2)n1 [Compound 80, 6-(3,4-Difluorophenyl)-N-(oxazol-2-yl)picolinamide]",≤ 4,
8,4,"O=C(Nc1ncco1)c1cccc(-c2cccc(Cl)c2)n1 [Compound 76, 6-(3-Chlorophenyl)-N-(oxazol-2-yl)picolinamide]",0.5,
4,4,"O=C(Nc1ncco1)c1ccnc(-c2cccc(Cl)c2)n1 [Compound 84, 2-(3-Chlorophenyl)-N-(oxazol-2-yl)pyrimidine-4-carboxamide]",1,
2,4,"CC(C)Oc1ccc(-c2cc(C(=O)Nc3ncco3)ccn2)cc1 [Compound 52, 2-(4-Isopropoxyphenyl)-N-(oxazol-2-yl)isonicotinamide]",2,
4,8,"O=C(Nc1ncco1)c1ccnc(-c2ccccc2Cl)c1 [Compound 34, 2-(2-Chlorophenyl)-N-(oxazol-2-yl)isonicotinamide]",2,
8,8,"O=C(Nc1ncco1)c1cccc(-c2ccc(F)c(Cl)c2)n1 [Compound 77, 6-(3-Chloro-4-fluorophenyl)-N-(oxazol-2-yl)picolinamide]",1,
4,8,"COc1ccc(-c2cc(C(=O)Nc3ncco3)ccn2)cc1 [Compound 51, 2-(4-Methoxyphenyl)-N-(oxazol-2-yl)isonicotinamide]",2,
1,64,"O=C(Nc1ncco1)c1ccnc(-c2ccc([N+](=O)[O-])cc2)c1 [Compound 49, 2-(4-Nitrophenyl)-N-(oxazol-2-yl)isonicotinamide]",64,
